{"source": "patent US10071035B2", "about": "“Use of benzyl alcohol as a defoaming agent” (Colgate-Palmolive Company, priority 2014, dated 2018)", "key": {"[1]": {"experiment": "Defoaming of foam generated from aqueous 0.2% sodium lauryl sulfate solution in measuring cylinders", "assay_type": "physicochemical", "conditions": "three minutes after addition of 1 mL aliquot of defoaming agent to 0.2% SLS foam", "description": "Three aqueous solutions of 0.2% sodium lauryl sulfate were prepared in 250 mL measuring cylinders by diluting 5 g of a 2% sodium lauryl sulfate stock solution with water to give a total volume of 50 mL. The solutions were agitated by swirling the measuring cylinders 12 times to generate foam. The volumes of foam generated were recorded. A 1 mL aliquot of defoaming agent was then added to each of the solutions at a rate of 0.01 mL/s. The defoaming agents investigated were benzyl alcohol, methanol, and water. Three minutes after the addition of the defoaming agent, the volumes of foam present in each vessel were recorded."}, "[2]": {"experiment": "Time taken to defoam (batch to settle) under vacuum during manufacture of oral care composition", "conditions": "composition B (0.3% benzyl alcohol) versus comparative composition A, 4 kg batch", "experimental": "The compositions were manufactured as follows: • 1. The sorbitol was added to an SS vessel having a stirrer. The stirrer was started. The sorbitol was heated to 60-62° C. • 2. Half of the purified water was added to the SS vessel. • 3. The copolymer of methyl vinyl ether and maleic acid was added to the SS vessel and mixed. Mixing was continued until the copolymer of methyl vinyl ether and maleic acid was fully dispersed. • 4. The NaOH (50% solution) was added to the SS vessel and mixed for 5 minutes. • 5. The remaining purified water was added to the SS vessel. • 6. […] The pre-mix was added to the SS vessel. • 7. The resulting gel was mixed for 20 minutes at a temperature of 64-67° C. • 8. The gel was transferred to a mixer. The thickener silica was added to the mixer and mixed for 5 minutes. The mixer used in the present experiment was an Alpro mixer. • 9. The abrasive silica and titanium dioxide were added to the mixer and mixed under vacuum. Mixing was continued until the temperature reached 46° C. • 10. At 46° C., the flavor, triclosan and sodium lauryl sulfate granules were added to the mixture. If used, benzyl alcohol was also added at this stage. • 11. The resulting mixture was then stirred for 2 minutes. Vacuum was then applied. The time taken for the batch to settle was observed. • 12. After allowing the batch to settle, mixing was continued for a further 8 minutes. […]"}}, "data": [{"smiles": "CO", "note": "[Methanol, methanol, reference compound]", "values": [{"measurement": "% reduction in foam after addition of defoaming agent", "setting": "[1]", "value": 74.5, "unit": "%"}]}, {"smiles": "OCc1ccccc1", "note": "[Benzyl alcohol, benzyl alcohol]", "values": [{"measurement": "% reduction in foam after addition of defoaming agent", "setting": "[1]", "value": 59.1, "unit": "%"}, {"measurement": "reduction of the defoaming time", "setting": "[2]", "value": 50, "unit": "%"}, {"measurement": "reduction of the defoaming time", "setting": "[2]; listed as benzyl alcohol", "value": "about 50%"}]}]}
